Experimental data: ChEMBL document CHEMBL5338791, “Discovery of Novel 1,3-Diphenylpyrazine Derivatives as Potent S-Phase Kinase-Associated Protein 2 (Skp2) Inhibitors for the Treatment of Cancer” (J Med Chem, 2023)
Calls of active or inactive are those of the source. The calls are words filed in the database; no cut-off is given here.

Experiments:
PC-3 [1] = assay: Inhibition of cell migration in human PC-3 cells by transwell invasion assay; format: functional, cell-based; conditions: dose <= 2.0 µM
PC-3 [2] = assay: Induction of cell cycle arrest in human PC-3 cells assessed as accumulation of cells at G1 phase at 10 uM incubated for 48 hrs by flow cytometry (reference value: 57.39 %); format: functional
PC-3 [3] = assay: Antitumor activity against human PC-3 cells xenografted in NOD-SCID mouse model assessed as tumor growth inhibition at 10 mg/kg, IG administered once every 2 days for 21 days relative to control; format: functional; conditions: PC-3, po, 504 h, time 21 day, read-out: TGI
PC-3 [4] = assay: Antitumor activity against human PC-3 cells xenografted in NOD-SCID mouse model assessed as tumor growth inhibition at 50 mg/kg, IG administered once every 2 days for 21 days relative to control; format: functional; conditions: PC-3, po, 504 h, time 21 day, read-out: TGI
MGC-803 [5] = assay: Downregulation of Skp2 level in human MGC-803 cells incubated for 48 hrs by Western blot analysis; format: functional, cell-based; conditions: dose <= 10.0 µM
PC-3 [6] = assay: Induction of cell cycle arrest in human PC-3 cells assessed as accumulation of cells at G2 phase at 5 uM incubated for 48 hrs by flow cytometry (reference value: 22.59 %); format: functional
[7] = MRTlast in tumor of NOD-SCID mouse model xenografted with human PC-3 cells at 25 mg/kg, IG measured upto 48 hrs by LC-MS/MS analysis; format: ADME, organism-based, Neoplasm; conditions: po
PC-3 [8] = assay: Induction of apoptosis in human PC-3 cells assessed as cell shrinkage incubated for 48 hrs; format: functional, cell-based; conditions: dose <= 10.0 µM
MGC-803 [9] = assay: Antitumor activity against human MGC-803 cells xenografted in NOD-SCID mouse model assessed as p21 accumulation at 10 to 50 mg/kg, IG administered once every 2 days for 21 days by Western blot analysis; format: functional, organism-based; conditions: dose 10-50 mg/kg, time 21.0 day
MGC-803 [10] = assay: Induction of apoptosis in human MGC-803 cells assessed as necrotic cells at 5 uM incubated for 48 hrs by annexin V-FITC/PI staining based flow cytometry (reference value: 0.89 %); format: functional
MGC-803 [11] = assay: Induction of apoptosis in human MGC-803 cells assessed as late apoptotic cells at 10 uM incubated for 48 hrs by annexin V-FITC/PI staining based flow cytometry (reference value: 0.95 %); format: functional
MGC-803 [12] = assay: Induction of cell cycle arrest in human MGC-803 cells assessed as accumulation of cells at G2 phase at 10 uM incubated for 48 hrs by flow cytometry (reference value: 20.64 %); format: functional
MGC-803 [13] = assay: Inhibition of cell migration in human MGC-803 cells by transwell invasion assay; format: functional, cell-based; conditions: dose <= 2.0 µM
PC-3 [14] = assay: Inhibition of cell migration in human PC-3 cells incubated for 48 hrs by wound healing assay; format: functional, cell-based; conditions: dose <= 2.0 µM
MGC-803 [15] = assay: Induction of cell cycle arrest in human MGC-803 cells assessed as accumulation of cells at S phase at 10 uM incubated for 48 hrs by flow cytometry (reference value: 20.41 %); format: functional
PC-3 [16] = assay: Induction of cell cycle arrest in human PC-3 cells assessed as accumulation of cells at S phase at 10 uM incubated for 48 hrs by flow cytometry (reference value: 19.7 %); format: functional
[17] = target: S-phase kinase-associated protein 2 (Homo sapiens, UniProt Q13309); assay: Inhibition of Skp2 in human PC-3 cells treated with shRNA 5'-GGACCTATCGAACTCAGTTAT-3' incubated upto 48 hrs by Western blot analysis (reference value: 4.8 +/- 0.5 microM); format: cell-based
PC-3 [18] = assay: Induction of cell cycle arrest in human PC-3 cells assessed as accumulation of cells at S phase at 5 uM incubated for 48 hrs by flow cytometry (reference value: 22.44 %); format: functional
PC-3 [19] = assay: Induction of cell cycle arrest in human PC-3 cells assessed as accumulation of cells at G1 phase at 10 uM incubated for 12 hrs by flow cytometry (reference value: 56.81 %); format: functional
PC-3 [20] = assay: Induction of apoptosis in human PC-3 cells assessed as necrotic cells at 5 uM incubated for 48 hrs by annexin V-FITC/PI staining based flow cytometry (reference value: 0.14 %); format: functional
A2780 = assay: Antitumor activity against human A2780 cells with low Skp2 expression assessed as cell growth inhibition incubated for 72 hrs by MTT assay; format: functional, cell-based; conditions: A2780, 72 h
[21] = AUClast in plasma of NOD-SCID mouse model xenografted with human PC-3 cells at 25 mg/kg, IG measured upto 48 hrs by LC-MS/MS analysis; format: ADME, organism-based; parameters: dose 25 mg/kg, time < 48 hrs, route ig; conditions: po
PC-3 [22] = assay: Induction of cell cycle arrest in human PC-3 cells assessed as accumulation of cells at G1 phase at 10 uM incubated for 6 hrs by flow cytometry (reference value: 56.81 %); format: functional
[23] = Toxicity in NOD-SCID mouse model xenografted with human PC-3 cells assessed as change in heart histology at 10 to 50 mg/kg, IG administered once every 2 days for 21 days by H and E staining based analysis; format: organism-based; conditions: in vivo, po, 504 h, dose 10-50 mg/kg, time 21 day
[24] = Biodistribution in tumor of NOD-SCID mouse model xenografted with human PC-3 cells at 25 mg/kg, IG measured for 48 hrs by LC-MS/MS analysis; format: ADME, organism-based, Neoplasm; conditions: in vivo, po
[25] = MRTlast in plasma of NOD-SCID mouse model xenografted with human PC-3 cells at 25 mg/kg, IG measured upto 48 hrs by LC-MS/MS analysis; format: ADME, organism-based; conditions: po
PC-3 [26] = assay: Induction of apoptosis in human PC-3 cells assessed as late apoptotic cells at 5 uM incubated for 48 hrs by annexin V-FITC/PI staining based flow cytometry (reference value: 0.45 %); format: functional
[27] = Toxicity in NOD-SCID mouse model xenografted with human PC-3 cells assessed as change in liver histology at 10 to 50 mg/kg, IG administered once every 2 days for 21 days by H and E staining based analysis; format: organism-based; conditions: in vivo, po, 504 h, dose 10-50 mg/kg, time 21 day
PC-3 [28] = assay: Induction of apoptosis in human PC-3 cells assessed as early apoptotic cells at 10 uM incubated for 48 hrs by annexin V-FITC/PI staining based flow cytometry (reference value: 0.85 %); format: functional
PC-3 [29] = assay: Induction of cell cycle arrest in human PC-3 cells assessed as accumulation of cells at S phase at 10 uM incubated for 36 hrs by flow cytometry (reference value: 19.7 %); format: functional
[30] = Toxicity in NOD-SCID mouse model xenografted with human PC-3 cells assessed as change in spleen histology at 10 to 50 mg/kg, IG administered once every 2 days for 21 days by H and E staining based analysis; format: organism-based; conditions: in vivo, po, 504 h, dose 10-50 mg/kg, time 21 day
MGC-803 [31] = assay: Induction of apoptosis in human MGC-803 cells assessed as necrotic cells at 10 uM incubated for 48 hrs by annexin V-FITC/PI staining based flow cytometry (reference value: 0.89 %); format: functional
[32] = Toxicity in NOD-SCID mouse model xenografted with human MGC-803 cells assessed as change in spleen histology at 10 to 50 mg/kg, IG administered once every 2 days for 21 days by H and E staining based analysis; format: organism-based; conditions: in vivo, po, 504 h, dose 10-50 mg/kg, time 21 day
PC-3 [33] = assay: Induction of cell cycle arrest in human PC-3 cells assessed as accumulation of cells at S phase at 10 uM incubated for 24 hrs by flow cytometry (reference value: 19.7 %); format: functional

S-phase kinase-associated protein 2, sequence (Q13309 whole entry): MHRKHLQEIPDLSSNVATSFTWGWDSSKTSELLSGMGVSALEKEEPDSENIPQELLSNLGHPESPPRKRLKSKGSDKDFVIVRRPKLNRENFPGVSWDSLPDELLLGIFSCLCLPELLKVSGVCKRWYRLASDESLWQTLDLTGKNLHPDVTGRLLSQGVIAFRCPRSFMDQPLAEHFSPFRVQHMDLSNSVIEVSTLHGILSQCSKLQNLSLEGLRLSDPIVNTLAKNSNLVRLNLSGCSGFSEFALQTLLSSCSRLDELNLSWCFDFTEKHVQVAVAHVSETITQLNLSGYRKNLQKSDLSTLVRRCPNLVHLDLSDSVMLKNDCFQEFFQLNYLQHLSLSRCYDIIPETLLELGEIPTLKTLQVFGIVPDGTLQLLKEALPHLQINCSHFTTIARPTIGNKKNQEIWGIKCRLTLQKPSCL

With `O=C(CCl)NC1CCN(c2cnc(-c3ccccc3)c(-c3ccccc3)n2)CC1` the inhibition (PC-3 [1]) was “Dose-Dependent Effect”, the Activity (PC-3 [2]) was 39.51% and the inhibition in vivo at 10 mg/kg (PC-3 [3]) was 55.7%. For the same compound, the inhibition in vivo at 50 mg/kg (PC-3 [4]) was 90.4%, the Activity (MGC-803 [5]) was “Dose-Dependent Effect” and the Activity (PC-3 [6]) was 16.41%. The MRT last at 48 h [7] was 9.9 h, the Activity (PC-3 [8]) was “Dose-Dependent Effect” and the Activity (MGC-803 [9]) was “Active”. The Activity (MGC-803 [10]) was 1.27%, the Activity (MGC-803 [11]) was 24.9% and the Activity (MGC-803 [12]) was 21.86%. For the same compound, the inhibition (MGC-803 [13]) was “Dose-Dependent Effect”, the inhibition (PC-3 [14]) was “Dose-Dependent Effect” and the Activity (MGC-803 [15]) was 38.76%. The Activity (PC-3 [16]) was 44.19%, the IC50 [17] was 38.5 µM and the Activity (PC-3 [18]) was 38.7%. It also gave an Activity (PC-3 [19]) of 44.95%, an Activity (PC-3 [20]) of 5.15% and an IC50 (A2780) of 14.3 µM. The AUC(0-t) at 48 h [21] was 3.23 µg·h/mL, the Activity (PC-3 [22]) was 46.91% and the Activity [23] was “Non-Toxic”. The Drug uptake [24] was “Active”, the MRT last at 48 h [25] was 13.4 h and the Activity (PC-3 [26]) was 12%. The Activity [27] was “Non-Toxic”, the Activity (PC-3 [28]) was 0.2% and the Activity (PC-3 [29]) was 45.23%. The Activity [30] was “Non-Toxic”, the Activity (MGC-803 [31]) was 4.73% and the Activity [32] was “Non-Toxic”. It also gave an Activity (PC-3 [33]) of 38.52%.
